For 13 compounds, IC50 and viability results are on record in ChEMBL document CHEMBL3779831, “Nitric Oxide Inhibitory Dimeric Sesquiterpenoids from Artemisia rupestris” (J Nat Prod, 2016).

As usually defined, the IC50 is the midpoint of a concentration-inhibition curve.

One data set deals with BV-2. Description: Inhibition of LPS-induced nitric oxide production in […] cells after 24 hrs by Griess assay. The data set is classed as functional, cell-based. As to conditions: Mus musculus, BV-2, 24 h. A general note: Griess reagent forms a coloured azo dye with nitrite.
A short description of data set [1]: Cytotoxicity against […] cells assessed as cell viability by MTT assay relative to control. The data set is classed as cell-based, BV-2. Set-up: concentration or dose not given beside the values. The note with it: Mus musculus, read-out: Activity. In general terms: Tetrazolium assays rely on reduction of a dye to a coloured formazan, in cell work by metabolically active cells.

Regarding `C=C(C(=O)O)[C@@H]1CC[C@H](C)C2=C(C1)[C@]1(C)C[C@H]2C[C@@]1(C(=O)O)[C@@H]1CC[C@H](C)[C@@H]2CC(=O)C(C)=C2C1`, the IC50 with BV-2 was found to be 32.7 µM. Besides, the viability in data set [1] turned out to be 90.7%.
In the same order, the values of `C=C(C(=O)O)[C@@H]1CC[C@]2(C)[C@@H](C1)C(C)=C[C@H]1[C@@H]2C[C@]1(C(=O)O)[C@@H]1CC[C@H](C)[C@@H]2CC(=O)C(C)=C2C1` are 39.8 µM and 91.1%.
Compound `C=C(C(=O)O)[C@@H]1CC[C@@]2(C)C=C[C@@H]3[C@@](C)(C[C@@]3(C(=O)O)[C@@H]3CC[C@H](C)[C@@H]4CC(=O)C(C)=C4C3)[C@@H]2C1` showed an IC50 with BV-2 of 27.3 µM. Besides, in data set [1], the viability was 95.7%.
Taken in the same sequence, the figures for `C=C(C(=O)O)[C@@H]1CC[C@@]2(C)C[C@@H](OC(=O)C(=C)[C@@H]3CC[C@H](C)[C@@H]4CC(=O)C(C)=C4C3)C[C@@](C)(O)[C@@H]2C1` were 40.6 µM and 97.2%.
In the same order, the values of `C=C(C(=O)O)[C@@H]1CC[C@H](C)C2=C(C1)[C@@]1(C)C[C@@H]2[C@](C(=O)O)([C@@H]2CC[C@H](C)[C@@H]3CC(=O)C(C)=C3C2)C1` are 38.6 µM and 90.7%.
In the same order, the values of `C=C(C(=O)O)[C@@H]1CC[C@@]2(C)[C@@H](OC(=O)C(=C)[C@@H]3CC[C@H](C)[C@@H]4CC(=O)C(C)=C4C3)C=C(C(C)=O)[C@@]2(O)C1` are 30.1 µM and 95.4%.
On to `C=C(C(=O)O)[C@@H]1CC[C@H](C)C23C[C@]4(C(=O)O[C@]56C[C@H]4CC[C@H](C)[C@@H]5CC[C@]6(C)O)[C@@H](C(C)=C2C1)[C@@H]3O`, for which the IC50 in the data set with BV-2 is 71.8 µM. The viability in data set [1] was 91.8%.
In the same order, the values of `C=C(C(=O)O)[C@@H]1CC[C@H](C)C2=C[C@@H]3[C@@]4(CC2(C1)[C@@]3(C)O)C(=O)O[C@]12C[C@H]4CC[C@H](C)[C@@H]1CC[C@]2(C)O` are 43.6 µM and 77.3%.
In the same order, the values of `C=C(C(=O)O)[C@@H]1CC[C@H](C)C2=C(C1)[C@]1(C)C[C@H]2C[C@@]1(C(=O)O)[C@@H]1CC[C@H](C)[C@@H]2CC(=O)C(C)=C2[C@H]1O` are 23 µM and 91.1%.
Turning to `C=C(C(=O)O)[C@@H]1CC[C@]2(C)C(=C(C)[C@@H](O)[C@H]3[C@@H]2C[C@]3(C(=O)O)[C@@H]2CC[C@H](C)[C@@H]3CC(=O)C(C)=C3C2)C1`, the IC50 in the data set with BV-2 came out at 29.8 µM. Besides, the viability in data set [1] was determined as 94.6%.
Taken in the same sequence, the figures for `C=C(C(=O)O)[C@@H]1CC[C@H](C)[C@]23C[C@H](C(C)=C2C1)[C@]1(C3)C(=O)O[C@]23C[C@H]1CC[C@H](C)[C@@H]2CC[C@]3(C)O` were 17 µM and 89.1%.
In the same order, the values of `C=C(C(=O)O)[C@@H]1CC[C@]2(C)[C@@H](C1)C(C)=C[C@@H](OC(=O)C(=C)[C@@H]1CC[C@H](C)[C@@H]3CC(=O)C(C)=C3C1)[C@@H]2O` are 33 µM and 96.7%.
Taken in the same sequence, the figures for `O=c1c(O)c(-c2ccc(O)c(O)c2)oc2cc(O)cc(O)c12` [QUERCETIN] were 8.7 µM and 99.5%.
